From patent US20260265754A1, “CHK1-TARGETING SIRNAS CHEMICALLY MODIFIED WITH GEMCITABINE” (Sirnaomics, Inc., priority 2024, published 2026)
Where a name gives a salt, the structure may show the parent alone. d = 2'-deoxy (DNA); m = 2'-O-methyl; f = 2'-fluoro

What was measured:
[1] = test system: MiaPaCa-2 (pancreatic cancer) cells; assay: Cell viability assay (CellTiter-Glo), lipofectamine transfection, MiaPaCa-2; format: cell-based; details: for Activity/efficacy in reducing cell viability: MiaPaCa-2 cells, FIG. 1; for Improvement of dose response over gemcitabine alone: MiaPaca2 cells
Method: All cell lines were obtained from ATCC (Rockville, MD). Cells were cultured in standard media supplemented with 10% FBS: Panc 10.05, H1299 and H358 in RPMI-1640 Medium, MiaPaCa-2, HT29 and MDA-MB-231 in DMEM, LS180 in EMEM. All media were obtained from ATCC (Rockville, MD). Cells were seeded in 384-well plates at a density of 0.3×10^3 to 1×10^3 cells/well. On the next day, cells were treated with serially diluted gemcitabine or siRNAs delivered by Lipofectamine RNAiMAX (Life Technologies, Carlsbad, CA). Ninety-six (96) hours after addition of gemcitabine or transfection reagent, the number of viable cells was determined using CellTiter-Glo(R)-2.0 reagent (Promega, Madison, WI) by measuring luminescent signal on a Cytation 5 plate reader (BioTek Inc, Winooski, VT). All values were compared to values generated for cells treated with non-silencing (NS) siRNA or to non-treated control and reported as the percentage cell viability. Values represent the mean±SD (n=4). All values were normalized to values generated for cells treated with a non-silencing siRNA and reported as the percentage cell viability. Calculation ofEC50 values. The EC50 values of the Gemcitabine, or Gemcitabine-modified siRNAs, (half-maximal effective concentration) were derived from a sigmoidal dose-response (variable slope) curve using GraphPad Prism 10.0.2(232) software (GraphPad Software, San Diego, Ca). Combination index (CI) calculation. […] CI=([…])2, where (Dx)1 and (Dx)2 are the doses of drug 1 and drug 2, alone, inhibiting 50%, whereas (D1) is the dose of drug 1 in combination, and (D2) the dose of drug 2 in combination that gives the experimentally observed 50% inhibition. These siRNA constructs were tested for their ability to reduce viability of pancreatic cancer using Miapaca2 cells after lipofectamine transfection of the siRNAs at varying concentrations. All of the constructs could inhibit the viability of these cells by 100% at concentrations below 100 nM. The contribution of the gemcitabine within the constructs was studied by making and evaluating constructs lacking the gemcitabine.

[2] = PNP particle size and zeta potential by dynamic light scattering; format: physicochemical; set-up: Nanoparticle size: unit not given here; details: for Nanoparticle size: siRNA formulated with HKP(+H), dynamic light scattering
Method: To test the efficacy of the products in vivo siRNAs (non-silencing siRNA (Control; NS), and PGN6) were formulated with a branched histidine lysine polymer (HKP (+H)) to form peptide nanoparticle (PNP) formulations were prepared using a microfluidic mixing system with a staggered herringbone patterned mixer (Precision NanoSystems, Vancouver, BC, Canada). HKP(+H) stock was prepared in water and diluted to appropriate concentrations. PolyGem siRNA or non-silencing (NS) siRNA stocks were prepared in water. The HKP(+H) and siRNA were mixed at a volume ratio of 1:1 at 8-10 mL/min total flow rate. Formulations were incubated for 30 min at room temperature. Particle size and zeta potential were then determined by dynamic light scattering with a Zetasizer Ultra (Malvern Panalytical, MA). A gel retardation assay was used to evaluate the efficiency of complex formation. Briefly, pre-formed PNPs were mixed with RNA loading dye and applied to 2% agarose gel. The gel was run in 0.5×TBE for 15 min. Electrophoretic mobility of the siRNA-nanoparticles was analyzed on a gel imaging system.

[3] = test system: OVCAR-3 (ovarian cancer) cells; assay: Cell viability assay, lipofectamine transfection, OVCAR-3; format: cell-based; details: OVCAR-3 cells, FIG. 2L
Method: (§1) Cells were seeded in 384-well plates at a density of 0.3×10^3 to 1×10^3 cells/well. On the next day, cells were treated with serially diluted gemcitabine or siRNAs delivered by Lipofectamine RNAiMAX (Life Technologies, Carlsbad, CA). Ninety-six (96) hours after addition of gemcitabine or transfection reagent, the number of viable cells was determined using CellTiter-Glo(R)-2.0 reagent (Promega, Madison, WI) by measuring luminescent signal on a Cytation 5 plate reader (BioTek Inc, Winooski, VT). All values were compared to values generated for cells treated with non-silencing (NS) siRNA or to non-treated control and reported as the percentage cell viability. Values represent the mean±SD (n=4). All values were normalized to values generated for cells treated with a non-silencing siRNA and reported as the percentage cell viability. Calculation ofEC50 values. The EC50 values of the Gemcitabine, or Gemcitabine-modified siRNAs, (half-maximal effective concentration) were derived from a sigmoidal dose-response (variable slope) curve using GraphPad Prism 10.0.2(232) software (GraphPad Software, San Diego, Ca).

MDA-MB-231 (TNBC) cells = assay: Cell viability assay (CellTiter-Glo), lipofectamine transfection, MDA-MB-231; format: cell-based; details: MDA-MB-231 cells, FIG. 2K
Method: as §1, with “All cell lines were obtained from ATCC (Rockville, MD). Cells were cultured in standard media supplemented with 10% FBS: Panc 10.05, H1299 and H358 in RPMI-1640 Medium, MiaPaCa-2, HT29 and MDA-MB-231 in DMEM, LS180 in EMEM. All media were obtained from ATCC (Rockville, MD). Cells” for “Cells”

A549 (G12S) cells = assay: Cell viability assay, A549; format: cell-based
Method: as §1

H358 cells (KRAS G12C) = assay: Cell viability assay (CellTiter-Glo), lipofectamine transfection, H358; format: cell-based
Method: (§2) All cell lines were obtained from ATCC (Rockville, MD). Cells were cultured in standard media supplemented with 10% FBS: Panc 10.05, H1299 and H358 in RPMI-1640 Medium, MiaPaCa-2, HT29 and MDA-MB-231 in DMEM, LS180 in EMEM. All media were obtained from ATCC (Rockville, MD).
as §1, with “viability.” for “viability. Calculation ofEC50 values. The EC50 values of the Gemcitabine, or Gemcitabine-modified siRNAs, (half-maximal effective concentration) were derived from a sigmoidal dose-response (variable slope) curve using GraphPad Prism 10.0.2(232) software (GraphPad Software, San Diego, Ca).”
(§3) Calculation ofEC50 values. The EC50 values of the Gemcitabine, or Gemcitabine-modified siRNAs, (half-maximal effective concentration) were derived from a sigmoidal dose-response (variable slope) curve using GraphPad Prism 10.0.2(232) software (GraphPad Software, San Diego, Ca). […]

H2030 (G12C) cells = assay: Cell viability assay, H2030; format: cell-based
Method: as §1

H1299 (KRAS wt) cells = assay: Cell viability assay (CellTiter-Glo), lipofectamine transfection, H1299; format: cell-based
Method: as §2
as §1, with “viability.” for “viability. Calculation ofEC50 values. The EC50 values of the Gemcitabine, or Gemcitabine-modified siRNAs, (half-maximal effective concentration) were derived from a sigmoidal dose-response (variable slope) curve using GraphPad Prism 10.0.2(232) software (GraphPad Software, San Diego, Ca).”
as §3

## Nc1ccn([C@@H]2O[C@H](CO)[C@@H](O)C2(F)F)c(=O)n1 [gemcitabine, 2′-deoxy-2′,2′-difluorocytidine monohydrochloride]
[1]; Homo sapiens, MIA PaCa-2, MiaPaca-2 cells, 96 h, free gemcitabine or siRNA by lipofectamine
  IC50: > 10 nM

## Non-Silencing: Non-silencing siRNA control; SEQ ID Nos. 1-2 (chain 1 CGAGCAGGGUAUCGACGAUUACAAA; chain 2 UUUGUAAUCGUCGAUACCCUGCUCG; RNA, backbone not given here; listed as Homo sapiens) [reference compound]
[2]
  Nanoparticle size: 82.6

## PGN6 (no Gem): Modified Chk1 siRNA as PGN6 lacking gemcitabine; SEQ ID Nos. 7-8 (chain 1 AAGAAAGAGAUCUGUAUCAAU; chain 2 AUUGAUACAGAUCUCUUUCUUTT; chain 1: sugars from the 5' end mmmmmmfmffffmmmmmfmmm, backbone not given here; chain 2: sugars from the 5' end mfmmmfmmmmmmmfmffffffdd, backbone not given here; further chemistry not fully specified)
[1]
  Activity/efficacy in reducing cell viability: did not show good efficacy at higher concentrations

## PGN6: Chk1-targeting siRNA, 2′OMe/2′-fluoro modified, four gemcitabine nucleosides; SEQ ID Nos. 3-4 (chain 1 AAGAAAGAGAUUCGUAUCAAU; chain 2 AUUGAUACAGAUCUCUUUCUUCCUU; 2'-OMe/2'-F modified, four gemcitabine nucleosides, full pattern not given here)
[1]
  Improvement of dose response over gemcitabine alone: 100 fold
[2]; siRNA formulated in HKP(+H)
  Zeta potential: 35.8 mV
[2]
  Nanoparticle size: 86.7
[3]
  Activity/efficacy in reducing cell viability: greater potency
MDA-MB-231 (TNBC) cells
  Activity/efficacy in reducing cell viability: greater potency

## PGN7 (no Gem): Modified Chk1 siRNA as PGN7 lacking gemcitabine; SEQ ID Nos. 9-10 (chain 1 AAGAAAGAGAUCUGUAUCAAU; chain 2 AUUGAUACAGAUCUCUUUCUUTT; chain 1: sugars from the 5' end mmmmmmfmfffffmfmffmmf, backbone not given here; chain 2: sugars from the 5' end mfmmmfmmmmmfmfmfmfmfmdd, backbone not given here; further chemistry not fully specified)
[1]
  Activity/efficacy in reducing cell viability: did not show good efficacy at higher concentrations

## PGN7: Chk1-targeting siRNA, 2′OMe/2′-fluoro modified, four gemcitabine nucleosides; SEQ ID Nos. 5-6 (chain 1 AAGAAAGAGAUCUGUAUCAAU; chain 2 AUUGAUACAGAUCUCUUUCUUCCUU; 2'-OMe/2'-F modified, four gemcitabine nucleosides, full pattern not given here)
[1]
  Improvement of dose response over gemcitabine alone: 100 fold
A549 (G12S) cells
  IC50: ~6 nM
[3]
  Activity/efficacy in reducing cell viability: greater potency
MDA-MB-231 (TNBC) cells
  Activity/efficacy in reducing cell viability: greater potency
H358 cells (KRAS G12C)
  IC50: ~1 nM
H2030 (G12C) cells
  IC50: 3 nM
H1299 (KRAS wt) cells
  IC50: ~6 nM

## PGN7S (sense AAGAAAGAGAUCUGUAUCAAU; antisense AUUGAUACAGAUCUCUUUCUUCCDUDU; gemcitabine nucleotides; phosphorothioates; 5' LS on antisense; modified_base 1 OTHER; 2'-O-methyl adenosine; modified_base 9 OTHER; 2'-fluoro-guanosine; modified_base 15 OTHER; 2'-fluorouracil; modified_base 21 OTHER; modified_base 16 OTHER; modified_base 6 OTHER; modified_base 17 OTHER; modified_base 19 OTHER; modified_base 5 OTHER; m; modified_base 3 um; modified_base 4 gm; modified_base 7 OTHER; 2)
[1]
  Activity/efficacy in reducing cell viability: weaker activity than either PGN6 or PGN7
